Reference: US9023789B2, “Amylin analogs and pharmaceutical compositions thereof” (Novo Nordisk A/S, priority 2012, dated 2015)
Read-outs that look alike come from different tables or passages of the source. Numbered stars: 1 amine (or outer) side, 2 acyl side, 3 side chain; on linkers, the order of the positions; unused ones are H or OH. Bridge positions count the residues as written; N and C are the ends. Side chains are listed from the residue outwards. Peptide text beside a SMILES is read from it. * marks the point of attachment. C20 diacid = O=C(O)CCCCCCCCCCCCCCCCCCC(=O)*; γGlu = O=C(O)[C@H](CCC(=O)[*:2])N[*:1]; AEEA = NCCOCCOCC(=O)O

Experiments:
[1] = biological target: T1, rat amylin receptor (rat calcitonin receptor + rat RAMP 3) (Rattus norvegicus, UniProt P32214+Q9JJ73); assay: ASSAY (VI) binding to the rat amylin receptor
T1 construct: expressed in transfected cells; host or cells: BHK tk'ts 13 (transient, FuGENE 6), membranes
T1 sequence (P32214 25-479 isoform P32214-2 limits assumed): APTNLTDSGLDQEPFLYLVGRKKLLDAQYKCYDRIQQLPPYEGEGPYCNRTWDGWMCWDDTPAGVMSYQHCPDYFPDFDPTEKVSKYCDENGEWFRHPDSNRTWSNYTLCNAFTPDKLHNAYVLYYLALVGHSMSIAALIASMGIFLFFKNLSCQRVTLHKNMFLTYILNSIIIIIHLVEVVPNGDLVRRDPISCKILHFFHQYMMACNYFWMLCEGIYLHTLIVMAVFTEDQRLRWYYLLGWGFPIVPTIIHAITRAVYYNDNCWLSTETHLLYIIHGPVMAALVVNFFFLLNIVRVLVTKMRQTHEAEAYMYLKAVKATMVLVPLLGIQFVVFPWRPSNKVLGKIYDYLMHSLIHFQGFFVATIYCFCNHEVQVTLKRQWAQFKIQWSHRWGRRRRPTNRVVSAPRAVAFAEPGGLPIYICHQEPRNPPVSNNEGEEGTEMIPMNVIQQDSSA
T1 sequence (Q9JJ73 23-147 partner): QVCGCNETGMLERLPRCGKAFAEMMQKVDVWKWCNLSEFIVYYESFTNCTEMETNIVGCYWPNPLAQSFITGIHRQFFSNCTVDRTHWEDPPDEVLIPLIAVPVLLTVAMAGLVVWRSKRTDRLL
Summary of the method: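 Membranes for this rat amylin receptor binding assay came from BHK tk′ts 13 cells. The cells were transiently transfected with rat calcitonin receptor using the FuGENE® 6 reagent from Roche, as the manufacturer recommends. The cells were collected approximately 48 hours after transfection, and membranes were then prepared.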

[2] = ASSAY (III) ThT fibrillation assay for physical stability; assay type: physicochemical
Summary of the method: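 Physical stability scored by ThT fluorescence (444 nm excitation, 485 nm emission) tracked every 20 min during 37 °C incubation with 960 rpm shaking, ThT at 1 μM final. Values are replicate means with SD at chosen times; HPLC against pramlintide standard gives initial and post-assay soluble concentrations.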

[3] = biological target: T2, rat calcitonin receptor (Rattus norvegicus, UniProt P32214); assay: ASSAY (VIII) binding to the rat calcitonin receptor; details: Table 7, read-out: rCTR bind IC50
T2 construct: expressed in transfected cells; host or cells: BHK tk'ts 13 (transient, FuGENE 6), membranes
T2 sequence (P32214 25-479 isoform P32214-2 limits assumed): T1 sequence (P32214 25-479 isoform P32214-2 limits assumed)
Summary of the method: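 BHK tk′ts 13 cells, transient rat calcitonin receptor transfection; DMEM + 10% FBS; harvest ~48 h post-transfection; membrane prep.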

[4] = Table 7, binding to rat amylin receptor, read-out: rAmylin-R bind IC50
[5] = Table 7, rat binding selectivity, rCTR IC50 / rAmylin-R IC50
[6] = Table 7a (preferred compounds), rat binding selectivity, rCTR IC50 / rAmylin-R IC50
[7] = ratio of rCTR bind IC50 to rAmylin-R bind IC50

Compound	IC50 [1, 4]	Ratio rCT/rAmylin binding [1, 5]	Ratio rCT/rAmylin binding [1, 6]	Ratio rCT/rAmylin binding [1, 7]	ThT pH 4.0 lag time (h) [2]	IC50 [3]	IC50 [1]
CC[C@H](C)[C@H](NC(=O)[C@H](C)NC(=O)CNC(=O)[C@H](Cc1ccccc1)NC(=O)[C@H](CC(N)=O)NC(=O)[C@@H]1CCCN1C(=O)[C@H](CO)NC(=O)[C@H](CO)NC(=O)[C@H](Cc1c[nH]cn1)NC(=O)[C@H](CCCNC(=N)N)NC(=O)[C@H](CC(C)C)NC(=O)[C@H](Cc1ccccc1)NC(=O)[C@H](Cc1c[nH]cn1)NC(=O)[C@H](C)NC(=O)[C@H](CC(C)C)NC(=O)[C@H](CCCNC(=N)N)NC(=O)[C@H](CCC(N)=O)NC(=O)[C@@H](NC(=O)[C@H](C)NC(=O)[C@@H]1CSSC[C@H](NC(=O)[C@@H](N)CCCCNC(=O)CC[C@H](NC(=O)CCCCCCCCCCCCCCCCCCC(=O)O)C(=O)O)C(=O)N[C@@H](CC(N)=O)C(=O)N[C@@H]([C@@H](C)O)C(=O)N[C@@H](C)C(=O)N[C@@H]([C@@H](C)O)C(=O)N1)[C@@H](C)O)C(=O)N1CCC[C@H]1C(=O)N[C@@H](CO)C(=O)N[C@@H](CO)C(=O)N[C@H](C(=O)N[C@@H](CC(N)=O)C(=O)N[C@H](C(=O)NCC(=O)N[C@@H](CO)C(=O)N[C@@H](CC(N)=O)C(=O)N[C@H](C(=O)N[C@@H](Cc1ccc(O)cc1)C(N)=O)[C@@H](C)O)C(C)C)[C@@H](C)O [Example 70] (H-K([γGlu-C20 diacid])CNTATCATQRLAHFLRHSSPNFGAIPSSTNVGSNTY-NH2; disulfide 2-7; N-terminus assumed)	0.355 nM	96.5	96.5	96.5	7 h	34.2 nM	–
CC[C@H](C)[C@H](NC(=O)[C@H](C)NC(=O)CNC(=O)[C@H](Cc1ccccc1)NC(=O)[C@H](CC(N)=O)NC(=O)[C@@H]1CCCN1C(=O)[C@H](CO)NC(=O)[C@H](CO)NC(=O)[C@H](Cc1c[nH]cn1)NC(=O)[C@H](CCCNC(=N)N)NC(=O)[C@H](CC(C)C)NC(=O)[C@H](Cc1ccccc1)NC(=O)CNC(=O)[C@H](C)NC(=O)[C@H](CC(C)C)NC(=O)[C@H](CCCNC(=N)N)NC(=O)[C@H](CCC(N)=O)NC(=O)[C@@H](NC(=O)[C@H](C)NC(=O)[C@@H]1CSSC[C@H](NC(=O)[C@@H](N)CCCCNC(=O)COCCOCCNC(=O)CC[C@H](NC(=O)CCCCCCCCCCCCCCCCCCC(=O)O)C(=O)O)C(=O)N[C@@H](CC(N)=O)C(=O)N[C@@H]([C@@H](C)O)C(=O)N[C@@H](C)C(=O)N[C@@H]([C@@H](C)O)C(=O)N1)[C@@H](C)O)C(=O)N1CCC[C@H]1C(=O)N[C@@H](CO)C(=O)N[C@@H](CO)C(=O)N[C@H](C(=O)N1CCC[C@H]1C(=O)N[C@H](C(=O)NCC(=O)N[C@@H](CO)C(=O)N[C@@H](CC(N)=O)C(=O)N[C@H](C(=O)N[C@@H](Cc1ccc(O)cc1)C(N)=O)[C@@H](C)O)C(C)C)[C@@H](C)O [Example 71] (H-K([AEEA-γGlu-C20 diacid])CNTATCATQRLAGFLRHSSPNFGAIPSSTPVGSNTY-NH2; disulfide 2-7)	0.276 nM	162.4	162.4	162.4	11 h	44.8 nM	–
CC[C@H](C)[C@H](NC(=O)[C@H](C)NC(=O)CNC(=O)[C@H](Cc1ccccc1)NC(=O)[C@H](CC(N)=O)NC(=O)[C@@H]1CCCN1C(=O)[C@H](CO)NC(=O)[C@H](CO)NC(=O)[C@H](Cc1c[nH]cn1)NC(=O)[C@H](CCCNC(=N)N)NC(=O)[C@H](CC(C)C)NC(=O)[C@H](Cc1ccccc1)NC(=O)[C@H](C)NC(=O)[C@H](C)NC(=O)[C@H](CC(C)C)NC(=O)[C@H](CCCNC(=N)N)NC(=O)[C@H](CCC(N)=O)NC(=O)[C@@H](NC(=O)[C@H](C)NC(=O)[C@@H]1CSSC[C@H](NC(=O)[C@@H](N)CCCCNC(=O)COCCOCCNC(=O)CC[C@H](NC(=O)CCCCCCCCCCCCCCCCCCC(=O)O)C(=O)O)C(=O)N[C@@H](CC(N)=O)C(=O)N[C@@H]([C@@H](C)O)C(=O)N[C@@H](C)C(=O)N[C@@H]([C@@H](C)O)C(=O)N1)[C@@H](C)O)C(=O)N1CCC[C@H]1C(=O)N[C@@H](CO)C(=O)N[C@@H](CO)C(=O)N[C@H](C(=O)N1CCC[C@H]1C(=O)N[C@H](C(=O)NCC(=O)N[C@@H](CO)C(=O)N[C@@H](CC(N)=O)C(=O)N[C@H](C(=O)N[C@@H](Cc1ccc(O)cc1)C(N)=O)[C@@H](C)O)C(C)C)[C@@H](C)O [Example 72] (H-K([AEEA-γGlu-C20 diacid])CNTATCATQRLAAFLRHSSPNFGAIPSSTPVGSNTY-NH2; disulfide 2-7 (inferred); N-terminus assumed)	0.851 nM	259.3	259.3	259.3	13 h	221 nM	–
CC[C@H](C)[C@H](NC(=O)[C@H](C)NC(=O)CNC(=O)[C@H](Cc1ccccc1)NC(=O)[C@H](CC(N)=O)NC(=O)[C@@H]1CCCN1C(=O)[C@H](CO)NC(=O)[C@H](CO)NC(=O)[C@H](Cc1c[nH]cn1)NC(=O)[C@H](CCCNC(=N)N)NC(=O)[C@H](CC(C)C)NC(=O)[C@H](Cc1ccccc1)NC(=O)[C@H](CO)NC(=O)[C@H](C)NC(=O)[C@H](CC(C)C)NC(=O)[C@H](CCCNC(=N)N)NC(=O)[C@H](CCC(N)=O)NC(=O)[C@@H](NC(=O)[C@H](C)NC(=O)[C@@H]1CSSC[C@H](NC(=O)[C@@H](N)CCCCNC(=O)COCCOCCNC(=O)CC[C@H](NC(=O)CCCCCCCCCCCCCCCCCCC(=O)O)C(=O)O)C(=O)N[C@@H](CC(N)=O)C(=O)N[C@@H]([C@@H](C)O)C(=O)N[C@@H](C)C(=O)N[C@@H]([C@@H](C)O)C(=O)N1)[C@@H](C)O)C(=O)N1CCC[C@H]1C(=O)N[C@@H](CO)C(=O)N[C@@H](CO)C(=O)N[C@H](C(=O)N1CCC[C@H]1C(=O)N[C@H](C(=O)NCC(=O)N[C@@H](CO)C(=O)N[C@@H](CC(N)=O)C(=O)N[C@H](C(=O)N[C@@H](Cc1ccc(O)cc1)C(N)=O)[C@@H](C)O)C(C)C)[C@@H](C)O [Example 73] (H-K([AEEA-γGlu-C20 diacid])CNTATCATQRLASFLRHSSPNFGAIPSSTPVGSNTY-NH2; disulfide 2-7 (inferred))	–	177.7	177.7	177.7	12 h	50.3 nM	0.283 nM
CC[C@H](C)[C@H](NC(=O)[C@H](C)NC(=O)CNC(=O)[C@H](Cc1ccccc1)NC(=O)[C@H](CC(N)=O)NC(=O)[C@@H]1CCCN1C(=O)[C@H](CO)NC(=O)[C@H](CO)NC(=O)[C@H](Cc1c[nH]cn1)NC(=O)[C@H](CCCNC(=N)N)NC(=O)[C@H](CC(C)C)NC(=O)[C@H](Cc1ccccc1)NC(=O)[C@@H](NC(=O)[C@H](C)NC(=O)[C@H](CC(C)C)NC(=O)[C@H](CCCNC(=N)N)NC(=O)[C@H](CCC(N)=O)NC(=O)[C@@H](NC(=O)[C@H](C)NC(=O)[C@@H]1CSSC[C@H](NC(=O)[C@@H](N)CCCCNC(=O)COCCOCCNC(=O)CC[C@H](NC(=O)CCCCCCCCCCCCCCCCCCC(=O)O)C(=O)O)C(=O)N[C@@H](CC(N)=O)C(=O)N[C@@H]([C@@H](C)O)C(=O)N[C@@H](C)C(=O)N[C@@H]([C@@H](C)O)C(=O)N1)[C@@H](C)O)[C@@H](C)O)C(=O)N1CCC[C@H]1C(=O)N[C@@H](CO)C(=O)N[C@@H](CO)C(=O)N[C@H](C(=O)N1CCC[C@H]1C(=O)N[C@H](C(=O)NCC(=O)N[C@@H](CO)C(=O)N[C@@H](CC(N)=O)C(=O)N[C@H](C(=O)N[C@@H](Cc1ccc(O)cc1)C(N)=O)[C@@H](C)O)C(C)C)[C@@H](C)O [Example 75] (H-K([AEEA-γGlu-C20 diacid])CNTATCATQRLATFLRHSSPNFGAIPSSTPVGSNTY-NH2; disulfide 2-7 (inferred); N-terminus assumed)	4.03 nM	109.8	109.8	109.8	25 h	442 nM	–
